Experimental findings from patent US8841324B2, “Heterocyclic compounds as autotaxin inhibitors” (Merck Patent GmbH, priority 2009, dated 2014) are described below.

A word on the IC50: it is the concentration that inhibits the measured activity by half.

The assay concerns the target T1, recombinant autotaxin (Homo sapiens, UniProt Q13822).
T1 construct: made in house; host or cells: Hi5 insect cells (baculovirus)
Nature of the assay: Autotaxin test (enzyme test), Amplex Red fluorescence readout. The format is biochemical. As to conditions: Autotaxin inhibition (enzyme test); substrate LPC 75 μM, 37° C. for 90 min. The procedure:
Pharmacological Data Autotaxin Inhibition (Enzyme Test)
Autotaxin Test (Enzyme Test)
The autotaxin activity is measured indirectly using Amplex Red reagent. Amplex Red is measured here as fluorogenic indicator for the H2O2 formed. In detail, autotaxin converts the substrate lysophosphatidylcholine (LPC) into phosphocholine and lysophosphatidylic acid (LPA). After this reaction, the phosphocholine is reacted with alkaline phosphatase to give inorganic phosphate and choline. In the next step, choline is oxidised by choline oxidase to give betaine, with formation of H2O2. H2O2 reacts with Amplex Red reagent in the presence of peroxidase (horseradish peroxidase) in a 1:1 stoichiometry and forms the highly fluorescent resorufin. The fluorescence is measured in a reaction-dependent kinetic mode in order that fluorescent signals from possible other fluorescent substances which are not involved in the reaction can be corrected out.
1.5 μl of a standard solution or of the test substances (substances with the name A(n)) in individual concentrations dissolved in 20 mM Hepes pH 7.2 with a maximum of 7.7% of DMSO are pre-incubated together with 10 μl (16 ng) of highly purified recombinant autotaxin in a black microtitre plate provided with 384 wells at 22° C. for 30 min. The reaction is then initiated by addition of 5 μl of L-α-lysophosphatidylcholine (LPC), where the final concentration of LPC is 75 μM. The mixture is incubated at 37° C. for 90 min. After the incubation, Amplex Red reagent, peroxidase (horseradish peroxidase) and choline oxidase is added, and the fluorescence is immediately measured at 612 nm with excitation of 485 nm in a “Tecan Ultra multimode” reader. The activity of autotaxin is calculated indirectly via detection of the H2O2 formed.
• Microtitre plate: PS microplate, 384 wells, small volume, black Corning, Cat#3677 • Protein: recombinant autotaxin (Baculovirale Hi5 Expression) • Substrate: L-α-lysophosphatidylcholine (chicken egg)); Avanti Polar Lipids #830071P • Standard: C14 LPA, Avanti Polar Lipids, Cat#857120P • Detection reagent: Amplex Red reagent; Invitrogen # A12222; dissolved in 1.923 ml of DMSO peroxidase type VI-A (horseradish) from Sigma # P6782; dissolved in 7.45 ml of test buffer, choline oxidase; Sigma # C5896; dissolved in 2.47 ml of test buffer • Detection reagent mix: 1:100 dilution of Amplex Red reagent in test buffer • Test buffer: 200 mM Tris HCl, Merck, Cat #1.08219, pH 7.9, 0.1% of BSA, lipid-free, Roche Cat#775835

As to `O=C(CNC1CCN(C(=O)OCc2cc(Cl)cc(Cl)c2)CC1)Nc1ccc2[nH]c(=O)oc2c1` [Compound 11, 3,5-dichlorobenzyl 4-{[(2-oxo-2,3-dihydrobenzoxazol-6-ylcarbamoyl)methyl]amino}piperidine-1-carboxylate], the IC50 was in the range of 0.1 to 1 µM.

As for `O=C(OCc1cc(Cl)cc(Cl)c1)N1CCN(CCC(O)c2ccc3[nH]c(=O)oc3c2)CC1` (stereo not drawn) [Compound 13, 3,5-dichlorobenzyl 4-[3-hydroxy-3-(2-oxo-2,3-dihydrobenzoxazol-6-yl)propyl]piperazine-1-carboxylate], the IC50 lay in the range of 0.1 to 1 µM.

`O=C(OCc1ccc(Cl)cc1)N1CCN(CCC(F)(F)c2ccc3[nH]c(=O)oc3c2)CC1` [Compound 17, 4-chlorobenzyl 4-[3,3-difluoro-3-(2-oxo-2,3-dihydrobenzoxazol-6-yl)propyl]piperazine-1-carboxylate]: the IC50 fell in the range of 0.1 to 1 µM.

Regarding `O=C(OCc1cc(Cl)cc(Cl)c1)N1CCN(CCN2CCC(c3ccc4[nH]c(=O)oc4c3)=N2)CC1` [Compound 21, 3,5-dichlorobenzyl 4-{2-[3-(2-oxo-2,3-dihydrobenzoxazol-6-yl)-4,5-dihydropyrazol-1-yl]ethyl}piperazine-1-carboxylate], the half-inhibitory concentration (IC50) is over 1 µM.

In the case of `O=C(Cc1ccc2[nH]nnc2c1)N1CCN(C(=O)OCc2ccc(Cl)cc2)CC1` [Compound 24, 4-chlorobenzyl 4-(2-1H-benzotriazol-5-ylacetyl)piperazine-1-carboxylate], the IC50 is over 1 µM.

Turning to `O=C(CN1CCN(C(=O)CCOc2ccc(Cl)cc2)CC1)c1ccc2[nH]c(=O)oc2c1` [Compound 27, 6-(2-{4-[3-(4-chlorophenoxy)propionyl]piperazin-1-yl}acetyl)-3H-benzoxazol-2-one], the IC50 is over 1 µM.

Consider `O=C(CCNC(=O)N1CCN(C(=O)OCc2ccc(Cl)cc2)CC1)Nc1ccc2[nH]nnc2c1` [Compound 33, 4-chlorobenzyl 4-[2-(1H-benzotriazol-5-ylcarbamoyl)ethyl-carbamoyl]piperazine-1-carboxylate], for which the IC50 was over 1 µM.

On to `O=C(CC(=O)NC1CCN(C(=O)OCc2ccc(Cl)cc2)CC1)Nc1ccc2[nH]nnc2c1` [Compound 39, 4-chlorobenzyl 4-[2-(1H-benzotriazol-5-ylcarbamoyl)acetylamino]piperidine-1-carboxylate], for which the IC50 lay within 0.1 to 1 µM.

Regarding `O=C(NCCN1CCN(C(=O)OCc2cc(Cl)cc(Cl)c2)CC1)c1ccc2[nH]nnc2c1` [Compound A1, 3,5-Dichlorobenzyl 4-{2-[(1H-benzotriazole-5-carbonyl)amino]ethyl}piperazine-1-carboxylate], the IC50 lay within 0.1 to 1 µM.

As for `O=C(NCCN1CCN(C(=O)OCc2ccc(C(F)(F)F)cc2)CC1)c1ccc2[nH]nnc2c1` [Compound A2, 4-Trifluoromethylbenzyl 4-{2-[(1H-benzotriazole-5-carbonyl)amino]ethyl}piperazine-1-carboxylate], the IC50 was over 1 µM.

For the compound `O=C(NCCN1CCN(C(=O)OCc2ccc(Cl)cc2F)CC1)c1ccc2[nH]nnc2c1` [Compound A3, 4-Chloro-2-fluorobenzyl 4-{2-[(1H-benzotriazole-5-carbonyl)amino]ethyl}piperazine-1-carboxylate], the IC50 was over 1 µM.

For `O=C(CN1CCN(C(=O)OCc2ccc(Cl)cc2)CC1)Nc1ccc2[nH]c(=O)oc2c1` [Compound A8, 4-Chlorobenzyl 4-[(2-oxo-2,3-dihydrobenzoxazol-6-ylcarbamoyl)methyl]piperazine-1-carboxylate], the IC50 was over 1 µM.

Regarding `O=C(Nc1ccc2[nH]c(=O)oc2c1)C(c1ccccc1)N1CCN(C(=O)OCc2ccc(Cl)cc2)CC1` (stereo not drawn) [Compound A10, 4-Chlorobenzyl 4-[(2-oxo-2,3-dihydrobenzoxazol-6-ylcarbamoyl)phenylmethyl]piperazine-l-carboxylate], the IC50 is over 1 µM.

For `O=C(CCN1CCN(C(=O)OCc2ccc(Cl)cc2)CC1)Nc1ccc2[nH]c(=O)oc2c1` [Compound A13, 4-Chlorobenzyl 4-[2-(2-oxo-2,3-dihydrobenzoxazol-6-ylcarbamoyl)ethyl]piperazine-1-carboxylate], the IC50 is over 1 µM.

Turning to `O=C(CCCN1CCN(C(=O)OCc2ccc(Cl)cc2)CC1)Nc1ccc2[nH]nnc2c1` [Compound A14, 4-Chlorobenzyl 4-[3-(1H-benzotriazol-5-yl-carbamoyl)propyl]piperazine-1-carboxylate], the IC50 was over 1 µM.

For `O=C(CN1CCC(NC(=O)OCc2cc(Cl)cc(Cl)c2)C1)Nc1ccc2[nH]nnc2c1` (stereo not drawn) [Compound A16, 3,5-Dichlorobenzyl {1-[(1H-benzotriazol-5-yl-carbamoyl)methyl]pyrrolidin-3-yl}crbamate], the IC50 is over 1 µM.

Take `O=C(NC1[C@H]2CN(C(=O)OCc3cc(Cl)cc(Cl)c3)C[C@@H]12)c1ccc2nn[nH]c2c1` (stereo partly drawn) [Compound A17, 3,5-Dichlorobenzyl (1R,5S)-6-[(3H-benzotriazole-5-carbonyl)amino]-3-azabicyclo[3.1.0]hexane-3-carboxylate]: the IC50 is over 1 µM.

In the case of `O=C(OCc1cc(Cl)cc(Cl)c1)N1CCN(CC(O)c2ccc3[nH]c(=O)oc3c2)CC1` (stereo not drawn) [Compound A18, 3,5-Dichlorobenzyl 4-[2-hydroxy-2-(2-oxo-2,3-dihydrobenzoxazol-6-yl)ethyl]piperazine-1-carboxylate], the IC50 was over 1 µM.
